The results in this text go back to US9296758B2, “2-quinolinyl-acetic acid derivatives as HIV antiviral compounds” (GILEAD SCIENCES, INC., priority 2010, dated 2016).

The test system of the first assay is HIV-IIIb. Kind of assay: Test A: Antiviral Assays in MT4 Cells. The class given is cell-based. As to conditions: Human immunodeficiency virus 1, IIIB, MT4, 120 h, MT-4 cells infected with HIV-IIIb (0.004 m.o.i.), 5 days of incubation, CellTiter-Glo chemiluminescence readout. An outline of the steps: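 MT-4 cells pre-infected with HIV-IIIb (0.004 m.o.i.) or mock-infected, 2000 cells per well, were exposed to 10 three-fold serial compound dilutions in quadruplicate in RPMI 1640 with 10% FBS. After 5 days at 37° C, cell viability read by CellTiter-Glo chemiluminescence.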
`Cc1cc2nc(-c3cn(C)cn3)ccc2c(-c2ccc3c4c(ccnc24)CCO3)c1[C@H](OC(C)(C)C)C(=O)O` (atropisomer, axis not shown) [Compound 85, (S)-2-tert-butoxy-2-((R)-5-(2,3-dihydropyrano[4,3,2-de]quinolin-7-yl)-7-methyl-2-(1-methyl-1H-imidazol-4-yl)quinolin-6-yl)acetic acid]: the midpoint of the response, the EC50, lay at 131 nM. In other words, the sub-micromolar range.
Still for that read-out and setting: under `Cc1cc2nc(-c3ccc(Cl)cc3)ccc2c(-c2ccc(Cl)cc2)c1[C@H](OC(C)(C)C)C(=O)O` [Compound 27, (S)-2-(2,5-bis(4-chlorophenyl)-7-methylquinolin-6-yl)-2-tert-butoxyacetic acid] stands 23 nM.
With `Cc1cc2nc(-c3ccnnc3)ccc2c(-c2ccc3c4c(ccnc24)CCO3)c1[C@H](OC(C)(C)C)C(=O)O` [Compound 88, (S)-2-tert-butoxy-2-((R)-5-(2,3-dihydropyrano[4,3,2-de]quinolin-7-yl)-7-methyl-2-(pyridazin-4-yl)quinolin-6-yl)acetic acid], the EC50 (usually the midpoint of the concentration-response curve) is 514 nM.
On the same count and under the same terms, under `Cc1cc2c(ccc3nccn32)c(-c2ccc(Cl)cc2)c1[C@H](OC(C)(C)C)C(=O)O` [Compound 62, (S)-2-tert-Butoxy-2-(6-(4-chlorophenyl)-8-methylimidazo[1,2-a]quinolin-7-yl)acetic acid] stands 72 nM; under `Cc1cc2nc(-c3ccncc3)ccc2c(-c2ccc(Cl)cc2)c1[C@H](OC(C)(C)C)C(=O)O` [Compound 73, (S)-2-tert-butoxy-2-(5-(4-chlorophenyl)-7-methyl-2-(pyridin-4-yl)quinolin-6-yl)acetic acid], 247 nM.
The same measure, in the same setting: under `CC#Cc1ccc2c(-c3ccc4c5c(ccnc35)CCO4)c([C@H](OC(C)(C)C)C(=O)O)c(C)cc2n1` (atropisomer, axis not shown) [Compound 44, (S)-2-tert-Butoxy-2-((R)-5-(2,3-dihydropyrano[4,3,2-de]quinolin-7-yl)-7-methyl-2-(prop-1-ynyl)quinolin-6-yl)acetic acid] stands 18 nM; under `Cc1cc2nc(C(F)F)ccc2c(-c2ccc(Cl)cc2)c1[C@H](OC(C)(C)C)C(=O)O` [Compound 100, (S)-2-tert-butoxy-2-(5-(4-chlorophenyl)-2-(difluoromethyl)-7-methylquinolin-6-yl)acetic acid], 75 nM.
`Cc1cc2nc(CO)ccc2c(-c2ccc3c4c(ccnc24)CCO3)c1[C@H](OC(C)(C)C)C(=O)O` [Compound 21, (S)-2-tert-Butoxy-2-((R)-5-(2,3-dihydropyrano[4,3,2-de]quinolin-7-yl)-2-(hydroxymethyl)-7-methylquinolin-6-yl)acetic acid]: the EC50 is 231 nM.
Same read-out and setting: for `Cc1cc2[nH]c(=O)ccc2c(-c2ccc3c4c(ccnc24)CCO3)c1[C@H](OC(C)(C)C)C(=O)O` [Compound 97, (S)-2-tert-Butoxy-2-((R)-5-(2,3-dihydropyrano[4,3,2-de]quinolin-7-yl)-7-methyl-2-oxo-1,2-dihydroquinolin-6-yl)acetic acid] the value was 898 nM; for `Cc1cc2nc(C#CC3CC3)ccc2c(-c2ccc(Cl)cc2)c1[C@H](OC(C)(C)C)C(=O)O` [Compound 38, (S)-2-tert-butoxy-2-(5-(4-chlorophenyl)-2-(cyclopropylethynyl)-7-methylquinolin-6-yl)acetic acid], 68 nM.
Take `Cc1cc2c(ccc3nncn32)c(-c2ccc(Cl)cc2)c1[C@H](OC(C)(C)C)C(=O)O` [Compound 63, (S)-2-tert-butoxy-2-(6-(4-chlorophenyl)-8-methyl-[1,2,4]triazolo[4,3-a]quinolin-7-yl)acetic acid]: the EC50 stood at 183 nM.
Still for that read-out and setting: for `COc1ccc2c(-c3ccc(Cl)cc3)c([C@H](OC(C)(C)C)C(=O)O)c(C)cc2n1` [Compound 66, (S)-2-tert-butoxy-2-(5-(4-chlorophenyl)-2-methoxy-7-methylquinolin-6-yl)acetic acid] the value was 297 nM; for `CCN(C)c1ccc2c(-c3ccc4c5c(ccnc35)CCO4)c([C@H](OC(C)(C)C)C(=O)O)c(C)cc2n1` [Compound 93, (S)-2-tert-Butoxy-2-((R)-5-(2,3-dihydropyrano[4,3,2-de]quinolin-7-yl)-2-(ethyl(methyl)amino)-7-methylquinolin-6-yl)acetic acid], 94 nM; for `Cc1cc2nc(N3CCOCC3)ccc2c(-c2ccc(Cl)cc2)c1[C@H](OC(C)(C)C)C(=O)O` [Compound 29, (S)-2-tert-Butoxy-2-(5-(4-chlorophenyl)-7-methyl-2-morpholinoquinolin-6-yl)acetic acid], 939 nM.
On the same count and under the same terms, for `Cc1ccc2c(-c3ccc(-c4ccccc4)cc3)c(C(OC(C)(C)C)C(=O)O)c(C)cc2n1` (stereo not shown) [Compound 19, 2-(5-(Biphenyl-4-yl)-2,7-dimethylquinolin-6-yl)-2-tert-butoxyacetic acid] the value was 53000 nM.
On the same count and under the same terms, under `Cc1cc2c(ccc(=O)n2CCNC(=O)OCC2c3ccccc3-c3ccccc32)c(-c2ccc(Cl)cc2)c1[C@H](OC(C)(C)C)C(=O)O` [Compound 101, (S)-2-(1-(2-(((9H-Fluoren-9-yl)methoxy)carbonylamino)ethyl)-5-(4-chlorophenyl)-7-methyl-2-oxo-1,2-dihydroquinolin-6-yl)-2-tert-butoxyacetic acid] stands 367 nM.
The molecule `Cc1cc2c(ccc(=O)n2Cc2ccccc2)c(-c2ccc3c4c(ccnc24)CCO3)c1[C@H](OC(C)(C)C)C(=O)O` (atropisomer, axis not shown) [Compound 68, (S)-2-((R)-1-benzyl-5-(2,3-dihydropyrano[4,3,2-de]quinolin-7-yl)-7-methyl-2-oxo-1,2-dihydroquinolin-6-yl)-2-tert-butoxyacetic acid] gave an EC50 of 29200 nM.
Still for that read-out and setting: under `Cc1cc2nc(-c3cscn3)ccc2c(-c2ccc(Cl)cc2)c1[C@H](OC(C)(C)C)C(=O)O` [Compound 76, (S)-2-tert-butoxy-2-(5-(4-chlorophenyl)-7-methyl-2-(thiazol-4-yl)quinolin-6-yl)acetic acid] stands 267 nM; under `Cc1cc2c(ccc(=O)n2C)c(-c2ccc(Cl)cc2)c1[C@H](OC(C)(C)C)C(=O)O` [Compound 67, (S)-2-tert-butoxy-2-(5-(4-chlorophenyl)-1,7-dimethyl-2-oxo-1,2-dihydroquinolin-6-yl)acetic acid], 273 nM; under `Cc1cc2nc(-c3ccccc3)ccc2c(-c2ccc3c4c(ccnc24)CCO3)c1[C@H](OC(C)(C)C)C(=O)O` (atropisomer, axis not shown) [Compound 57, (S)-2-tert-Butoxy-2-((R)-5-(2,3-dihydropyrano[4,3,2-de]quinolin-7-yl)-7-methyl-2-phenylquinolin-6-yl)acetic acid], 20 nM.
On the same count and under the same terms, for `Cc1cc2c(ccc3nnnn32)c(-c2ccc(Cl)cc2)c1[C@H](OC(C)(C)C)C(=O)O` [Compound 64, (S)-2-tert-butoxy-2-(6-(4-chlorophenyl)-8-methyltetrazolo[1,5-a]quinolin-7-yl)acetic acid] the value was 290 nM; for `Cc1cc2c(ccc(=O)n2-c2ccc(Cl)cc2)c(-c2ccc(Cl)cc2)c1[C@H](OC(C)(C)C)C(=O)O` [Compound 59, (S)-2-(1,5-Bis(4-chlorophenyl)-7-methyl-2-oxo-1,2-dihydroquinolin-6-yl)-2-tert-butoxyacetic acid], 321 nM; for `CNCc1ccc2c(-c3ccc(Cl)cc3)c([C@H](OC(C)(C)C)C(=O)O)c(C)cc2n1` [Compound 10, (S)-2-tert-Butoxy-2-(5-(4-chlorophenyl)-7-methyl-2-((methylamino)methyl)quinolin-6-yl)acetic acid], 897 nM.
Same read-out and setting: under `Cc1cc2nc(N(C)C)ccc2c(-c2ccc3c4c(ccnc24)CCO3)c1[C@H](OC(C)(C)C)C(=O)O` [Compound 96, (S)-2-tert-butoxy-2-((R)-5-(2,3-dihydropyrano[4,3,2-de]quinolin-7-yl)-2-(dimethylamino)-7-methylquinolin-6-yl)acetic acid] stands 37 nM; under `Cc1cc2cccnc2c(-c2ccc(Cl)cc2)c1[C@H](OC(C)(C)C)C(=O)O` [Compound 4J, (S)-2-tert-butoxy-2-(8-(4-chlorophenyl)-6-methylquinolin-7-yl)acetic acid], 543 nM.
In turn, `Cc1cc2nc(-c3cncnc3)ccc2c(-c2ccc(Cl)cc2)c1[C@H](OC(C)(C)C)C(=O)O` [Compound 87, (S)-2-tert-Butoxy-2-(5-(4-chlorophenyl)-7-methyl-2-(pyrimidin-5-yl)quinolin-6-yl)acetic acid] yielded a 50% effective concentration (EC50) of 175 nM.
Still for that read-out and setting: under `C#Cc1ccc2c(-c3ccc4c5c(ccnc35)CCO4)c([C@H](OC(C)(C)C)C(=O)O)c(C)cc2n1` (atropisomer, axis not shown) [Compound 45, (S)-2-tert-butoxy-2-((R)-5-(2,3-dihydropyrano[4,3,2-de]quinolin-7-yl)-2-ethynyl-7-methylquinolin-6-yl)acetic acid] stands 29200 nM.

Still in this assay, the particulars now being: MT-4 cells infected with HIV-IIIb (0.004 m.o.i.), 5 days of incubation, CellTiter-Glo chemiluminescence readout.
For `Cc1cccnc1-c1ccc2c(-c3ccc4c5c(ccnc35)CCO4)c([C@H](OC(C)(C)C)C(=O)O)c(C)cc2n1` [Compound 106, (S)-2-tert-Butoxy-2-((R)-5-(2,3-dihydropyrano[4,3,2-de]quinolin-7-yl)-7-methyl-2-(3-methylpyridin-2-yl)quinolin-6-yl)acetic acid], a half-maximal response (EC50) required 25 nM. In other words, the double-digit nanomolar range.
Same read-out and setting: for `Cc1ccc2c(-c3ccc4c5c(cccc35)CCO4)c([C@H](OC(C)(C)C)C(=O)O)c(C)cc2n1` (single isomer, unassigned) [Compound 102B] the value was 110 nM.
In turn, `Cc1ccc2c(-c3ccc4c5c(cccc35)CCO4)c([C@H](OC(C)(C)C)C(=O)O)c(C)cc2n1` (single isomer, unassigned) [Compound 102A] gave an EC50 of 13 nM.
Still for that read-out and setting: for `Cc1cc2nc(C(F)F)ccc2c(-c2ccc3c4c(ccnc24)CCO3)c1[C@H](OC(C)(C)C)C(=O)O` [Compound 99, (S)-2-tert-butoxy-2-((R)-2-(difluoromethyl)-5-(2,3-dihydropyrano[4,3,2-de]quinolin-7-yl)-7-methylquinolin-6-yl)acetic acid] the value was 12 nM.
